Results from patent US10487092B2, “Pyrazolopyridinamines as MKNK1 and MKNK2 inhibitors” (BAYER PHARMA AKTIENGESELLSCHAFT, priority 2014, dated 2019).

Tests used:
human full-length MKNK1 = human full-length MKNK1 (Homo sapiens (Human), UniProt Q9BUB5, T344D); test: MKNK1 kinase high ATP assay (TR-FRET); type: biochemical; details: high ATP (2 mM), 15 min preincubation with enzyme; read-out: MKNK1 IC50
Outline: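 GST-tagged full-length MKNK1 (aa 1–424, T344D; insect-cell expressed) preincubated 15 min with compound, then reacted 30 min at 22 °C with 2 mM ATP and 0.06 μM biotinylated peptide (final) in HEPES pH 7.5 buffer. Phosphopeptide detected by TR-FRET 665/620 ratio, normalized to no-inhibitor and no-enzyme controls.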

[1] = test system: secretion of TNF-α in human PBMCs; test: In vitro IL-1β-induced cytokine (TNF-α) secretion of human PBMCs; type: cell-based; details: PBMC; human PBMCs stimulated with 20 ng/ml IL-1β for 24 hours
From the text: In Vitro IL-1β (Interleukin-1 beta, IL-1b)-Induced Cytokine Secretion of Human PBMCs (Peripheral Blood Mononuclear Cells)
The effect of the chemical compounds on the induced cytokine secretion of human PBMCs has been investigated. Here, the cytokine secretion has been induced by IL-1β which binding to its receptors leads to the activation of the MKNK signaling pathway.
Human PBMCs have been isolated from anti-coagulated human whole blood donated from healthy volunteers by pre-filling Leucosep tubes with ficoll-paque (15 ml, Biochrom, order ID: L6115) and adding 20 ml whole blood. After centrifugation of the blood at 800 g for 15 min at room temperature (RT) plasma including thrombocytes has been discarded. PBMCs were transferred to a new falcon tube, washed with PBS (phosphate-buffered saline) at 250 g for 10 min at RT and resuspended in complete medium [RPMI 1640, without L-glutamine (PAA, order ID: E15-039), 10% FCS; 50 U/ml Penicillin, 50 μg/ml Streptomycin (PAA, order ID: P11-010) and 1% L-glutamine (Sigma, order ID. G7513)]. The assay was performed in a 96-well plate at a cell density of 2.5×10^5 cells/well as triplicates. The compounds were serially diluted in DMSO and added to the PBMCs at a range of 3×10^−9 M to 1×10^−5M with a final concentration of 0.4% DMSO, respectively. Treatment of PBMCs with 0.4% DMSO was used as control. After 30 min of incubation, PBMCs were stimulated with 20 ng/ml IL-1β (R&D, order ID: 201-LB CF) for 24 hours. Cell viability was measured using the CellTiter-Glo Luminescent Assay (Promega, order ID: G7571) following the manufacturers protocol. The amount of secreted TNF-α (tumor necrosis factor-alpha) in the supernatant was determined using the Human Prolnflammatory 9-Plex (MSD, order ID: K15007B) according to manufacturer's instruction. The inhibitory activity was determined as the relation to the control in percent. IC50 values were calculated using the 4-parameter logistic model.

Sequence of human full-length MKNK1 (Q9BUB5 other isoform, or with tags, fused parts or gaps T344D): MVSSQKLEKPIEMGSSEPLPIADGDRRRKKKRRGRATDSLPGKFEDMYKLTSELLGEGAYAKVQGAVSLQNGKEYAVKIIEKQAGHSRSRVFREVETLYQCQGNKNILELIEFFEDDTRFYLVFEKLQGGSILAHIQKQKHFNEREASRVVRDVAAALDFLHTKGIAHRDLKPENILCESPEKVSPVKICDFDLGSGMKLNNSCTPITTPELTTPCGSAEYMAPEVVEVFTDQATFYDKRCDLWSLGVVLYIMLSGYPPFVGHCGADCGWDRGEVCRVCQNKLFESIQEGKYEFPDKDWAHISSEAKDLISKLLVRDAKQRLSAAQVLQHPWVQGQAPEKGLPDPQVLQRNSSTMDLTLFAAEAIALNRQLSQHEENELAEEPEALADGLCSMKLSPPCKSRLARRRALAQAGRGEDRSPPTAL

Compound	IC50 (human full-length MKNK1)	IC50 [1]
COc1cn2nccc2cc1Nc1ncnc2sc3c(c12)CC[C@H](C(=O)N(C)C)C3 [Example 15, (7S)-4-[(6-Methoxypyrazolo[1,5-a]pyridin-5-yl)amino]-N,N-dimethyl-5,6,7,8-tetrahydro[1]benzothieno[2,3-d]pyrimidine-7-carboxamide]	4 nM	10 to 100 nM
CN(C)CCCN(C)C(=O)[C@H]1CCc2c(sc3ncnc(Nc4ccn5nccc5c4)c23)C1 [Example 27, (7S)—N-[3-(Dimethylamino)propyl]-N-methyl-4-(pyrazolo[1,5-a]pyridin-5-ylamino)-5,6,7,8-tetrahydro[1]benzothieno[2,3-d]pyrimidine-7-carboxamide]	13 nM	≥ 100 nM
CN(C)C1CCN(C(=O)[C@H]2CCc3c(sc4ncnc(Nc5ccn6nccc6c5)c34)C2)CC1 [Example 32, [4-(Dimethylamino)piperidin-1-yl][(7S)-4-(pyrazolo[1,5-a]pyridin-5-ylamino)-5,6,7,8-tetrahydro[1]benzothieno[2,3-d]pyrimidin-7-yl]methanone]	25 nM	10 to 100 nM
CN(CCN)C(=O)[C@H]1CCc2c(sc3ncnc(Nc4ccn5nccc5c4)c23)C1 [Example 39, (7S)—N-(2-Aminoethyl)-N-methyl-4-(pyrazolo[1,5-a]pyridin-5-ylamino)-5,6,7,8-tetrahydro[1]benzothieno[2,3-d]pyrimidine-7-carboxamide]	41 nM	≥ 100 nM
CN(C)CCCN(C)C(=O)[C@H]1CCc2c(sc3ncnc(Nc4cc5ccnn5cc4Cl)c23)C1 [Example 51, (7S)-4-[(6-Chloropyrazolo[1,5-a]pyridin-5-yl)amino]-N-[3-(dimethylamino)propyl]-N-methyl-5,6,7,8-tetrahydro[1]benzothieno[2,3-d]pyrimidine-7-carboxamide]	5 nM	10 to 100 nM
CN(C)CCN(C)C(=O)[C@H]1CCc2c(sc3ncnc(Nc4cc5ccnn5cc4Cl)c23)C1 [Example 53, (7S)-4-[(6-Chloropyrazolo[1,5-a]pyridin-5-yl)amino]-N-[2-(dimethylamino)ethyl]-N-methyl-5,6,7,8-tetrahydro[1]benzothieno[2,3-d]pyrimidine-7-carboxamide]	9 nM	≥ 100 nM
CN(C)C1CN(C(=O)[C@H]2CCc3c(sc4ncnc(Nc5cc6ccnn6cc5Cl)c34)C2)C1 [Example 54, (7S)-4-[(6-Chloropyrazolo[1,5-a]pyridin-5-yl)amino]-5,6,7,8-tetrahydro[1]benzothieno[2,3-d]pyrimidin-7-yl[3-(dimethylamino)azetidin-1-yl]methanone]	11 nM	10 to 100 nM
CN1CCN(C(=O)[C@H]2CCc3c(sc4ncnc(Nc5cc6ccnn6cc5Cl)c34)C2)CC1 [Example 65, (7S)-4-[(6-Chloropyrazolo[1,5-a]pyridin-5-yl)amino]-5,6,7,8-tetrahydro[1]benzothieno[2,3-d]pyrimidin-7-yl(4-methylpiperazin-1-yl)methanone]	5 nM	10 to 100 nM
COc1cn2nccc2cc1Nc1ncnc2sc3c(c12)CC[C@H](C(=O)NC(C)C)C3 [Example 85, (7S)-4-[(6-Methoxypyrazolo[1,5-a]pyridin-5-yl)amino]-N-(propan-2-yl)-5,6,7,8-tetrahydro[1]benzothieno[2,3-d]pyrimidine-7-carboxamide]	4 nM	1 to 10 nM
COc1cn2nccc2cc1Nc1ncnc2sc3c(c12)CC[C@H](C(=O)N(C)CC(F)F)C3 [Example 95, (7S)—N-(2,2-Difluoroethyl)-4-[(6-methoxypyrazolo[1,5-a]pyridin-5-yl)amino]-N-methyl-5,6,7,8-tetrahydro[1]benzothieno[2,3-d]pyrimidine-7-carboxamide]	2 nM	10 to 100 nM
COc1cn2nccc2cc1Nc1ncnc2sc3c(c12)CC[C@H](C(=O)N1CC(C#N)C1)C3 [Example 98, 1-((7S)-4-[(6-Methoxypyrazolo[1,5-a]pyridin-5-yl)amino]-5,6,7,8-tetrahydro[1]benzothieno[2,3-d]pyrimidin-7-ylcarbonyl)azetidine-3-carbonitrile]	1 nM	≥ 100 nM
COc1cn2nccc2cc1Nc1ncnc2sc3c(c12)CC[C@H](C(=O)N1CC(C)(O)C1)C3 [Example 100, (3-Hydroxy-3-methylazetidin-1-yl)(7S)-4-[(6-methoxypyrazolo[1,5-a]pyridin-5-yl)amino]-5,6,7,8-tetrahydro[1]benzothieno[2,3-d]pyrimidin-7-ylmethanone]	< 1 nM	1 to 10 nM
COc1cn2nccc2cc1Nc1ncnc2sc3c(c12)CC[C@H](C(=O)N1CC(N(C)C)C1)C3 [Example 102, [3-(Dimethylamino)azetidin-1-yl](7S)-4-[(6-methoxypyrazolo[1,5-a]pyridin-5-yl)amino]-5,6,7,8-tetrahydro[1]benzothieno[2,3-d]pyrimidin-7-ylmethanone]	2 nM	10 to 100 nM
CCN(CCOC)C(=O)[C@H]1CCc2c(sc3ncnc(Nc4cc5ccnn5cc4OC)c23)C1 [Example 118, (7S)—N-Ethyl-N-(2-methoxyethyl)-4-[(6-methoxypyrazolo[1,5-a]pyridin-5-yl)amino]-5,6,7,8-tetrahydro[1]benzothieno[2,3-d]pyrimidine-7-carboxamide]	1 nM	–
COCCN(CCOC)C(=O)[C@H]1CCc2c(sc3ncnc(Nc4cc5ccnn5cc4OC)c23)C1 [Example 119, (7S)—N,N-Bis(2-methoxyethyl)-4-[(6-methoxypyrazolo[1,5-a]pyridin-5-yl)amino]-5,6,7,8-tetrahydro[1]benzothieno[2,3-d]pyrimidine-7-carboxamide]	< 1 nM	–
COc1cn2nccc2cc1Nc1ncnc2sc3c(c12)CC[C@H](C(=O)N(C)C(C)(C)C)C3 [Example 120, (7S)—N-tert-Butyl-4-[(6-methoxypyrazolo[1,5-a]pyridin-5-yl)amino]-N-methyl-5,6,7,8-tetrahydro[1]benzothieno[2,3-d]pyrimidine-7-carboxamide]	5 nM	–
COc1cn2nccc2cc1Nc1ncnc2sc3c(c12)CC[C@H](C(=O)N1C[C@@H]2C[C@H]1CN2C)C3 [Example 121, (7S)-4-[(6-Methoxypyrazolo[1,5-a]pyridin-5-yl)amino]-5,6,7,8-tetrahydro[1]benzothieno[2,3-d]pyrimidin-7-yl[(1S,4S)-5-methyl-2,5-diazabicyclo[2.2.1]hept-2-yl]methanone]	1 nM	–
COc1cn2nccc2cc1Nc1ncnc2sc3c(c12)CC[C@H](C(=O)N1C[C@H]2C[C@@H]1CN2C)C3 [Example 122, (7S)-4-[(6-Methoxypyrazolo[1,5-a]pyridin-5-yl)amino]-5,6,7,8-tetrahydro[1]benzothieno[2,3-d]pyrimidin-7-yl[(1R,4R)-5-methyl-2,5-diazabicyclo[2.2.1]hept-2-yl]methanone]	< 1 nM	–
COc1cn2nccc2cc1Nc1ncnc2sc3c(c12)CC[C@H](C(=O)N1C[C@@H]2C[C@H]1CO2)C3 [Example 123, (7S)-4-[(6-Methoxypyrazolo[1,5-a]pyridin-5-yl)amino]-5,6,7,8-tetrahydro[1]benzothieno[2,3-d]pyrimidin-7-yl[(1S,4S)-2-oxa-5-azabicyclo[2.2.1]hept-5-yl]methanone]	2 nM	–
COc1cn2nccc2cc1Nc1ncnc2sc3c(c12)CC[C@H](C(=O)N1C[C@H]2C[C@@H]1CO2)C3 [Example 124, (7S)-4-[(6-Methoxypyrazolo[1,5-a]pyridin-5-yl)amino]-5,6,7,8-tetrahydro[1]benzothieno[2,3-d]pyrimidin-7-yl[(1R,4R)-2-oxa-5-azabicyclo[2.2.1]hept-5-yl]methanone]	1 nM	–
COc1cn2nccc2cc1Nc1ncnc2sc3c(c12)CC[C@H](C(=O)N1CCOC[C@H]1C)C3 [Example 126, (7S)-4-[(6-Methoxypyrazolo[1,5-a]pyridin-5-yl)amino]-5,6,7,8-tetrahydro[1]benzothieno[2,3-d]pyrimidin-7-yl[(3R)-3-methylmorpholin-4-yl]methanone]	1 nM	–
(7S)-4-[(6-Chloropyrazolo[1,5-a]pyridin-5-yl)amino]-5,6,7,8-tetrahydro[1]benzothieno[2,3-d]pyrimidin-7-yl(4-[2-dimethylamino)ethyl](methyl)aminopiperidin-1-yl)methanone [Example 62]	6 nM	–
